Source: PMC7034945 (RSC Advances, 2019)
Where two headings read alike, the source gives them in different places. Blank lines part the entries; values can stand above or below the compound they belong to.

Assays:
HIV-1 NL4-3 virus = assay: Anti-HIV-1 activity, multicycle assay with HIV-1 NL4-3 in TZM-bl cells; assay type: cell-based; settings: for anti-HIV-1 activity (in words): at the test concentration
TZM-bl cells = settings: uninfected TZM-bl cells, NA = no cytotoxicity at the test concentration
HIV-1 CA monomer = HIV-1 CA monomer (Human immunodeficiency virus type 1 group M subtype B, UniProt P12493); assay: biochemical; assay type: binding, HIV-1 NL4-3
in vitro = settings: human
[1] = measured by HPLC
[2] = Table 2, HIV-1 NL4-3, TZM-bl cells, NA = no anti-HIV-1 activity at the test concentration
[3] = Human immunodeficiency virus 1, NL43, TZM-bl
[4] = Caco-2, pH 7.4, Mean Papp A to B, Caco-2, 2 μM, 2 hours, pH 7.40
[5] = Caco-2, pH 7.4, Rank Papp, Caco-2, A to B, permeability class
[6] = Caco-2, pH 7.4, apparent permeability (Papp), Caco-2 cells
[7] = Table 1, HIV-1 NL4-3, TZM-bl cells, NA = no anti-HIV-1 activity at the test concentration

Compound: COc1ccc(N(C)C(=O)[C@H](Cc2cc(F)cc(F)c2)NC(=O)c2cccc(-c3cn(Cc4ccc([N+](=O)[O-])cc4)nn3)c2)cc1 [II-10c, (S)-N-(3-(3,5-Difluorophenyl)-1-((4-methoxyphenyl)(methyl)amino)-1-oxopropan-2-yl)-3-(1-(4-nitrobenzyl)-1H-1,2,3-triazol-4-yl)benzamide]
EC50 (HIV-1 NL4-3 virus; [3]): 2.13 ± 0.75 µM | anti-HIV-1 activity (in words) (HIV-1 NL4-3 virus; TZM-bl cells): exhibited anti-HIV-1 activity at the test concentration | SI (selectivity index, ratio of CC50/EC50) (HIV-1 NL4-3 virus; Table 2, TZM-bl cells): >16.66 | Kd (HIV-1 CA monomer): 2200 ± 230 nM | Papp A→B (in vitro; [4]): < 0.01 ×10⁻⁶ cm/s | Papp A→B (in vitro; [5]): < 0.5 ×10⁻⁶ cm/s | Papp A→B (in vitro; [6]): < 0.01 ×10⁻⁶ cm/s

Compound: COCCc1ccc(OCC(O)CNC(C)C)cc1 (stereo not shown) [Metoprolol]
Papp A→B (in vitro; [4]): 16.4 ×10⁻⁶ cm/s | Papp A→B (in vitro; [5]): > 2.5 ×10⁻⁶ cm/s | Papp A→B (in vitro; [6]): 16.4 ×10⁻⁶ cm/s

Compound: CC(C)(C)NCC(O)COc1cccc2c1CC(O)C(O)C2 (stereo not shown) [Nadolol]
Papp A→B (in vitro; [4]): 0.08 ×10⁻⁶ cm/s | Papp A→B (in vitro; [5]): < 0.5 ×10⁻⁶ cm/s | Papp A→B (in vitro; [6]): 0.08 ×10⁻⁶ cm/s

Compound: (S)-N-(1-((4-Methoxyphenyl)(methyl)amino)-1-oxo-3-phenylpropan-2-yl)-3-(1-(naphthalen-1-ylmethyl)-1H-1,2,3-triazol-4-yl)benzamide [III-15l]
anti-HIV-1 activity (in words) (HIV-1 NL4-3 virus; TZM-bl cells): lost anti-HIV-1 activity completely

Compound: (S)-N-(3-(3,5-Difluorophenyl)-1-((4-methoxyphenyl)(methyl)amino)-1-oxopropan-2-yl)-3-(1-(quinolin-2-yl)-1H-1,2,3-triazol-4-yl)benzamide [II-10i]
anti-HIV-1 activity (in words) (HIV-1 NL4-3 virus; TZM-bl cells): exhibited anti-HIV-1 activity at the test concentration | EC50 (HIV-1 NL4-3 virus; [2]): 21.5 ± 4.53 µM | CC50 (TZM-bl cells; Table 2): > 32.3 µM

Compound: Methyl (S)-2-(4-(3-((1-((4-methoxyphenyl)(methyl)amino)-1-oxo-3-phenylpropan-2-yl)carbamoyl)phenyl)-1H-1,2,3-triazol-1-yl)acetate [III-15m]
anti-HIV-1 activity (in words) (HIV-1 NL4-3 virus; TZM-bl cells): lost anti-HIV-1 activity completely

Compound: Methyl (S)-4-(4-((3-(3,5-difluorophenyl)-1-((4-methoxyphenyl)(methyl)amino)-1-oxopropan-2-yl)carbamoyl)-1H-1,2,3-triazol-1-yl)benzoate [I-8p]
EC50 (HIV-1 NL4-3 virus; [7]): 14.2 ± 3.46 µM | CC50 (TZM-bl cells; Table 1): > 18.2 µM

Compound: N-((S)-3-(3,5-Difluorophenyl)-1-((4-methoxyphenyl)(methyl)amino)-1-oxopropan-2-yl)-1-(2-(hydroxymethyl)-5-(5-methyl-2,6-dioxo-1,2,3,6-tetrahydropyridin-3-yl)tetrahydrofuran-3-yl)-1H-1,2,3-triazole-4-carboxamide [I-8u]
anti-HIV-1 activity (in words) (HIV-1 NL4-3 virus; TZM-bl cells): lost its anti-HIV-1 activity | EC50 (HIV-1 NL4-3 virus; [7]): > 15.6 µM | CC50 (TZM-bl cells; Table 1): > 15.6 µM

Compound: N-((S)-3-(3,5-Difluorophenyl)-1-((4-methoxyphenyl)(methyl)amino)-1-oxopropan-2-yl)-3-(1-(2-(hydroxymethyl)-5-(5-methyl-2,6-dioxo-1,2,3,6-tetrahydropyridin-3-yl)tetrahydrofuran-3-yl)-1H-1,2,3-triazol-4-yl)benzamide [II-10o]
EC50 (HIV-1 NL4-3 virus; [2]): > 27.9 µM | CC50 (TZM-bl cells; Table 2): > 27.9 µM

Continued, in another order:

EC50 (HIV-1 NL4-3 virus; [2]): > 29.4 µM
Compound: 3-(1-(2-(Hydroxymethyl)-5-(5-methyl-2,6-dioxo-1,2,3,6-tetrahydropyridin-3-yl)tetrahydrofuran-3-yl)-1H-1,2,3-triazol-4-yl)-N-((S)-1-((4-methoxyphenyl)(methyl)amino)-1-oxo-3-phenylpropan-2-yl)benzamide [III-15o]
CC50 (TZM-bl cells; Table 2): > 29.4 µM

EC50 (HIV-1 NL4-3 virus; [3]): > 32 µM
Compound: COc1ccc(N(C)C(=O)[C@H](Cc2ccccc2)NC(=O)c2cccc(-c3cn(Cc4ccc(S(N)(=O)=O)cc4)nn3)c2)cc1 [III-15f, (S)-N-(1-((4-Methoxyphenyl)(methyl)amino)-1-oxo-3-phenylpropan-2-yl)-3-(1-(4-sulfamoylbenzyl)-1H-1,2,3-triazol-4-yl)benzamide]

EC50 (HIV-1 NL4-3 virus; [3]): > 34.9 µM
Compound: COc1ccc(N(C)C(=O)[C@H](Cc2ccccc2)NC(=O)c2cccc(-c3cn(CCCc4ccccc4)nn3)c2)cc1 [III-15g, (S)-N-(1-((4-Methoxyphenyl)(methyl)amino)-1-oxo-3-phenylpropan-2-yl)-3-(1-(3-phenylpropyl)-1H-1,2,3-triazol-4-yl)benzamide]

EC50 (HIV-1 NL4-3 virus; [3]): > 33.6 µM
Compound: COc1ccc(N(C)C(=O)[C@H](Cc2ccccc2)NC(=O)c2cccc(-c3cn(Cc4ccc5ccccc5c4)nn3)c2)cc1 [III-15j, (S)-N-(1-((4-Methoxyphenyl)(methyl)amino)-1-oxo-3-phenylpropan-2-yl)-3-(1-(naphthalen-2-ylmethyl)-1H-1,2,3-triazol-4-yl)benzamide]

EC50 (HIV-1 NL4-3 virus; [3]): > 33.6 µM
Compound: COc1ccc(N(C)C(=O)[C@H](Cc2ccccc2)NC(=O)c2cccc(-c3cn(Cc4cccc5ccccc45)nn3)c2)cc1 [III-15k, (S)-N-(1-((4-Methoxyphenyl)(methyl)amino)-1-oxo-3-phenylpropan-2-yl)-3-(1-(naphthalen-1-ylmethyl)-1H-1,2,3-triazol-4-yl)benzamide]

EC50 (HIV-1 NL4-3 virus; [2]): 9.37 ± 3.18 µM | log P [1]: 2.36
Compound: (S)-N-(1-((4-Methoxyphenyl)(methyl)amino)-1-oxo-3-phenylpropan-2-yl)-3-(1-(3-(thiophen-3-yl)propyl)-1H-1,2,3-triazol-4-yl)benzamide [III-15h]
anti-HIV-1 activity (in words) (HIV-1 NL4-3 virus; TZM-bl cells): exhibited anti-HIV-1 activity at the test concentration | CC50 (TZM-bl cells; Table 2): > 35.4 µM

EC50 (HIV-1 NL4-3 virus; [2]): > 34.3 µM
Compound: (S)-N-(1-((4-Methoxyphenyl)(methyl)amino)-1-oxo-3-phenylpropan-2-yl)-3-(1-(quinolin-2-yl)-1H-1,2,3-triazol-4-yl)benzamide [III-15i]
CC50 (TZM-bl cells; Table 2): > 34.3 µM

EC50 (HIV-1 NL4-3 virus; [2]): > 36 µM
Compound: Ethyl (S)-2-(4-(3-((1-((4-methoxyphenyl)(methyl)amino)-1-oxo-3-phenylpropan-2-yl)carbamoyl)phenyl)-1H-1,2,3-triazol-1-yl)acetate [III-15n]
anti-HIV-1 activity (in words) (HIV-1 NL4-3 virus; TZM-bl cells): lost anti-HIV-1 activity completely | CC50 (TZM-bl cells; Table 2): > 36 µM
